Experimental findings from patent US20250345329A1, “HETEROARYL DERIVATIVE COMPOUND AND USES THEREOF” (VORONOI, INC., priority 2022, published 2025) are described below.

In general, IC50 refers to the concentration that gives 50% inhibition.

Each structure is given as a SMILES string.

The target of experiment [1] is T1, human EGFR (d746-750/T790M/C797S) (Homo sapiens, UniProt P00533, C797S/DEL746-750/T790M).
T1 construct: human EGFR (d746-750/T790M/C797S) (668-end, SignalChem); purchased SignalChem
T1 sequence (P00533 with tags, fused parts or gaps DEL746-750/T790M/C797S): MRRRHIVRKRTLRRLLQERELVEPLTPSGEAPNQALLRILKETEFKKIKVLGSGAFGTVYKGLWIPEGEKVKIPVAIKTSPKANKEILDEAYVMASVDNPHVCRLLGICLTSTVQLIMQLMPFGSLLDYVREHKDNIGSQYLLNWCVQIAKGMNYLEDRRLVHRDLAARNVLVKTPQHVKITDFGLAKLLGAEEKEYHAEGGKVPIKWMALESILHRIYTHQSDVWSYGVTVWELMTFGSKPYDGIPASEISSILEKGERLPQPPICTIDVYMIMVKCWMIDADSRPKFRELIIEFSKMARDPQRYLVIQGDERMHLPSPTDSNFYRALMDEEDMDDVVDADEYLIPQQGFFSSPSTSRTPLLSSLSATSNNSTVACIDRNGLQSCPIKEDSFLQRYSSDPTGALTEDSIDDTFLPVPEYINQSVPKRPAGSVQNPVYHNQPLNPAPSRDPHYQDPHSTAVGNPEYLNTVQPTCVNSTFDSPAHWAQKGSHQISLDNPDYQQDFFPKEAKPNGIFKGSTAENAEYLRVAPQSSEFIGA
Put plainly: EGFR C797S enzyme inhibition activity (ADP-Glo kinase assay). The class given is biochemical. The note with it: purified enzyme 3 ng, ATP 5 μM, 25° C., 1 hour, luminescence; read-out: EGFR DTC Enzyme IC50. A digest of the protocol: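 Kinase construct 668-end (3 ng) was incubated with 5 μM ATP and 0.2 μg substrate in Tris pH 7.4 buffer for 1 h at 25° C. ADP-Glo luminescence was read over 12 final compound concentrations from 10 μM down to 0. IC50 was taken as 50% inhibition relative to the solvent control.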

The test system of experiment [2] is Ba/F3 expressing EGFR Del19/T790M/C797S mutations. Put plainly: Inhibitory activity on proliferation of Ba/F3 cell overexpressing EGFR C797S (Cell Titer-Glo). The note with it: Mus musculus, BaF3; 72 hours treatment, cell growth rate vs control; read-out: Ba/F3 (EGFR DTC) GI50. It counts as cell-based. The method, boiled down: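 Ba/F3 cells with EGFR Del19/T790M/C797S in RPMI-1640 + 10% FBS were seeded (3000/well) 24 h before 72 h compound exposure at 37 °C. Compounds were tested in a 12-point 3-fold series, final […]–5 μM. CellTiter-Glo luminescence gave growth % versus control, from which GI50 was derived.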

Turning to `CC(C)Nc1cc(Nc2ccnc(-c3cnn(S(=O)(=O)C4CC4)c3)n2)ncc1C(=O)NCCS(=O)(=O)C(C)C` [Example 74, 6-((2-(1-(cyclopropylsulfonyl)-1H-pyrazol-4-yl)pyrimidin-4-yl)amino)-4-(isopropylamino)-N-(2-(isopropylsulfonyl)eth-yl)nicotinamide], in experiment [1], the IC50 was < 50 nM. For the same compound, the GI50 in experiment [2] fell in the range of 500 to 5000 nM.

Regarding `CC(C)Nc1cc(Nc2ccnc(-c3cnn(S(=O)(=O)C4CC4)c3)n2)ncc1C(=O)NC1CCN(S(C)(=O)=O)C1` (stereo not drawn) [Example 49, 6-((2-(1-(cyclopropylsulfonyl)-1H-pyrazol-4-yl)pyrimidin-4-yl)amino)-4-(isopropylamino)-N-(1-(methylsulfonyl)pyrro-lidin-3-yl)nicotinamide], the IC50 in experiment [1] is < 50 nM. For the same compound, the GI50 in experiment [2] was 500 to 5000 nM.

Regarding `C[C@H]1CCOc2c(cnn2C)-c2nccc(n2)Nc2cc(c(C(=O)NC3CCCC(C(F)(F)F)C3)cn2)N1` (stereo partly drawn) [Example 119, (6S)-1^1,6-dimethyl-N-(3-(trifluoroemthyl)cy-clohexyl)-1^1H-9-oxa-3,5-diaza-2(2,4)-pyrimidina-4(2,4)-pyridina-1(4,5)-pyrazolacyclo-nonaphane-4^5-carboxamide], in experiment [1], the IC50 is < 50 nM. Besides, the GI50 in experiment [2] is < 500 nM.

For `C[C@H]1CCOc2c(cnn2C)-c2nccc(n2)Nc2cc(c(C(=O)NCC#N)cn2)N1` [Example 80, (S)-N-(cyanomethyl)-1^1,6-dimethyl-1^1H-9-oxa-3,5-diaza-2(2,4)-pyrimidina-4(2,4)-pyridina-1(4,5)-pyrazolacyclo-nonaphane-4^5-carboxamide], in experiment [1], the IC50 is < 50 nM. The GI50 in experiment [2] is < 500 nM.

Turning to `CC(C)Nc1cc(Nc2ccnc(-c3cnn(S(=O)(=O)C4CC4)c3)n2)ncc1C(=O)NCC1CCN(C)CC1` [Example 51, 6-((2-(1-(cyclopropylsulfonyl)-1H-pyrazol-4-yl)pyrimidin-4-yl)amino)-4-(isopropylamino)-N-((1-methylpiperidin-4-yl)methyl)nicotinamide], the IC50 in experiment [1] is < 50 nM. Also, the GI50 in experiment [2] was in the range of 500 to 5000 nM.

As to `CC(C)Nc1cc(Nc2ccnc(-c3cnn(S(=O)(=O)C4CC4)c3)n2)ncc1C(=O)NCC1CCCC1` [Example 56, N-(cyclopentylmethyl)-6-((2-(1-(cyclopropylsulfonyl)-1H-pyrazol-4-yl)pyrimidin-4-yl)amino)-4-(isopropylamino)-nicotinamide], in experiment [1], the IC50 lay within 50 to 500 nM. Also, the GI50 in experiment [2] fell in the range of 500 to 5000 nM.

In the case of `CC(C)Nc1cc(Nc2ccnc(-c3cnn(S(=O)(=O)C4CC4)c3)n2)ncc1C(=O)NCCCN(C)C` [Example 34, 6-((2-(1-(cyclopropylsulfonyl)-1H-pyrazol-4-yl)pyrimidin-4-yl)amino)-N-(3-(dimethylamino)pro-pyl)-4-(isopropylamino)nico-tinamide], the IC50 in experiment [1] was < 50 nM. Besides, in experiment [2], the GI50 fell in the range of 500 to 5000 nM.

For the compound `CC(C)Nc1cc(Nc2ccnc(-c3cnn(S(=O)(=O)C4CC4)c3)n2)ncc1C(=O)N1C[C@H](CS(C)(=O)=O)[C@H]1C` [Example 71, (6-((2-(1-(cyclopropylsulfonyl)-1H-pyrazol-4-yl)pyrimidin-4-yl)amino)-4-(isopropylamino)pyri-din-3-yl)((2R,3S)-2-methyl-3-((methylsulfonyl)meth-yl)azetidin-1-yl)methanone], the IC50 in experiment [1] was < 50 nM. Further, the GI50 in experiment [2] lay within 500 to 5000 nM.

For the compound `CS(=O)(=O)CC1CN(C(=O)c2cnc(Nc3ccnc(-c4cnn(S(=O)(=O)C5CC5)c4)n3)cc2NC2CCCC2)C1` [Example 6, (4-(cyclopentylamino)-6-((2-(1-(cyclopropylsulfonyl)-1H-pyrazol-4-yl)pyrimidin-4-yl)amino)pyridin-3-yl)(3-((methylsulfonyl)meth-yl)azetidin-1-yl)methanone], the IC50 in experiment [1] was < 50 nM. The GI50 in experiment [2] lay in the range of 500 to 5000 nM.

Regarding `CC(C)Nc1cc(Nc2ccnc(-c3cnn(S(=O)(=O)C4CC4)c3)n2)ncc1C(=O)NC1CC(F)(F)C1` [Example 99, 6-((2-(1-(cyclopropylsulfonyl)-1H-pyrazol-4-yL)pyrimidin-4-yl)amino)-N-(3,3-difluorocyclobutyl)-4-(isopropylamino)nico-tinamide], the IC50 in experiment [1] lay within 50 to 500 nM. In addition, in experiment [2], the GI50 is < 500 nM.

In the case of `CC(C)Nc1cc(Nc2ccnc(-c3cnn(S(=O)(=O)C4CC4)c3)n2)ncc1C(=O)NC1CCS(=O)(=O)C1` (stereo not drawn) [Example 36, 6-((2-(1-(cyclopropylsulfonyl)-1H-pyrazol-4-yl)pyrimidin-4-yl)amino)-N-(1,1-dioxydotetrahydrothi-ophen-3-yl)-4-(isopropylamino)nico-tinamide], the IC50 in experiment [1] was < 50 nM. In experiment [2], the GI50 was 500 to 5000 nM.

On to `CC(C)Nc1cc(Nc2ccnc(-c3cnn(S(=O)(=O)C4CC4)c3)n2)ncc1C(=O)NCCC(F)(F)F` [Example 82, 6-((2-(1-(cyclopropylsulfonyl)-1H-pyrazol-4-yl)pyrimidin-4-yl)amino)-4-(isopropylamino)-N-(3,3,3-trifluoropropyl)nico-tinamide], for which the IC50 in experiment [1] is < 50 nM. For the same compound, the GI50 in experiment [2] is < 500 nM.

Take `CS(=O)(=O)CC1CN(C(=O)c2cnc(Nc3ccnc(-c4cnn(S(=O)(=O)C5CC5)c4)n3)cc2NC2CCOC2)C1` (stereo not drawn) [Example 7, (6-((2-(1-(cyclopropylsulfonyl)-1H-pyrazol-4-yl)pyrimidin-4-yl)amino)-4-((tetrahydrofuran-3-yl)amino)pyridin-3-yl)(3-((methylsulfonyl)meth-yl)azetidin-1-yl)methanone]: the IC50 in experiment [1] was < 50 nM. In experiment [2], the GI50 is 500 to 5000 nM.

On to `CC(C)Nc1cc(Nc2ccnc(-c3cnn(S(=O)(=O)C4CC4)c3)n2)ncc1C(=O)N1CC(CS(C)(=O)=O)C1` [Example 1, (6-((2-(1-(cyclopropylsulfonyl)-1H-pyrazol-4-yl)pyrimidin-4-yl)amino)-4-(isopropylamin)pyri-din-3-yl)(3-((methylsulfonyl)meth-yl)azetidin-1-yl)methanone], for which the IC50 in experiment [1] was < 50 nM. Besides, in experiment [2], the GI50 lay within 500 to 5000 nM.

On to `CC(C)Nc1cc(Nc2ccnc(N3CCOCC3)n2)ncc1C(=O)N1CC(CS(C)(=O)=O)C1` [Example 10, (4-(isopropylamino)-6-((2-morpholinopyrimidin-4-yl)amino)pyridin-3-yl)(3-((methylsulfonyl)meth-yl)azetidin-1-yl)methanone], for which the IC50 in experiment [1] is < 50 nM. Also, in experiment [2], the GI50 lay in the range of 500 to 5000 nM.

On to `CC(C)Nc1cc(Nc2ccnc(-c3cnn(S(=O)(=O)C4CC4)c3)n2)ncc1C(=O)NCCS(=O)(=O)N(C)C` [Example 73, 6-((2-(1-(cyclopropylsulfonyl)-1H-pyrazol-4-yl)pyrimidin-4-yl)amino)-N-(2-(N,N-dimethylsulfamoyl)eth-yl)-4-(isopropylamino)nico-tinamide], for which the IC50 in experiment [1] was < 50 nM. Also, the GI50 in experiment [2] fell in the range of 500 to 5000 nM.

Consider `CC(C)Nc1cc(Nc2ccnc(-c3cnn(S(=O)(=O)C4CC4)c3)n2)ncc1C(=O)NC[C@@H]1CCCN1` [Example 76, (S)-6-((2-(1-(cyclopropylsulfonyl)-1H-pyrazol-4-yl)pyrimidin-4-yl)amino)-4-(isopropylamino)-N-(pyrrolidin-2-ylmethyl)nicotinamide], for which, in experiment [1], the IC50 is < 50 nM. Moreover, the GI50 in experiment [2] was in the range of 500 to 5000 nM.

Consider `CC(C)Nc1cc(Nc2ccnc(-c3cnn(S(=O)(=O)C4CC4)c3)n2)ncc1C(=O)NCC#N` [Example 72, N-(cyanomethyl)-6-((2-(1-(cyclopropylsulfonyl)-1H-pyrazol-4-yl)pyrimidin-4-yl)amino)-4-(isoporpylamino)nico-tinamide], for which the IC50 in experiment [1] was < 50 nM. Moreover, the GI50 in experiment [2] was < 500 nM.

`CC(C)Nc1cc(Nc2ccnc(-c3cnn(S(=O)(=O)C4CC4)c3)n2)ncc1C(=O)NCCN1CCCC1` [Example 68, 6-((2-(1-(cyclopropylsulfonyl)-1H-pyrazol-4-yl)pyrimidin-4-yl)amino)-4-(isopropylamino)-N-(2-(pyrrolidin-1-yl)ethyl)nicotinamide]: the IC50 in experiment [1] is < 50 nM. In addition, in experiment [2], the GI50 is 500 to 5000 nM.

As for `CO[C@H]1CCN(c2nccc(Nc3cc(NC(C)C)c(C(=O)NCCc4ccccc4)cn3)n2)C[C@H]1F` (relative stereo) [Example 96, 6-((2-(cis-3-fluoro-4-methoxypiperidin-1-yl)pyrimidin-4-yl)amino)-4-(isopropylamino)-N-phenethylnicotinamide], the IC50 in experiment [1] was in the range of 50 to 500 nM. Besides, in experiment [2], the GI50 lay within 500 to 5000 nM.

Take `COC(=O)c1cnc2cc1N[C@@H](C)CCOc1c(cnn1C)-c1nccc(n1)N2` [Example 102, methyl(S)-1^1,6-dimethyl-1^1H-9-oxa-3,5-diaza-2(2,4)-pyrimidina-4(2,4)-pyridina-1(4,5)-pyrazolacyclo-nonaphane-4^5-carboxylate]: the concentration for half-maximal inhibition (IC50) in experiment [1] was < 50 nM. In experiment [2], the GI50 is < 500 nM.
